From patent publication USRE47589E1, “Phosphoramidate compounds and methods of use” (NuCana plc, priority 2003, dated 2019)

Tests used:
[1] = test system: HIV-1; conditions: cited from earlier work; for EC50: d4T phosphoramidates, prior art, read-out: 50% effective doses vs HIV-1
[2] = test system: human prostate cancer cell line (PC-3); test: MTT cytotoxicity assay, prostate cancer cell line; type: cell-based; conditions: for EC50: Homo sapiens, read-out: EC50/μM Prostate PC-3
Experimental: (§1) The compounds include those whose preparations are described above and compounds made by preparative methods corresponding to the methods described above.
(§2) Compounds were diluted over a range of concentrations and added to cells over 1 to 3 days. The cytotoxity was determined using a MTT assay at the end of each experiment.

[3] = test system: human breast cancer cell line (MDA MB 231); test: MTT cytotoxicity assay, breast cancer cell line; type: cell-based; conditions: for EC50: Homo sapiens, MDA-MB-231, read-out: EC50/μM Breast MDA MB231
Experimental: as §1, §2

[4] = test system: human colon cancer cell line (HT115); test: MTT cytotoxicity assay, colon cancer cell line; type: cell-based; conditions: for EC50: Homo sapiens, HT115, read-out: EC50/μM Colon HT115, MTT assay, compounds added to cells over 1 to 3 days
Experimental: as §1, §2

Compound | EC50 [1] [µM] | potency boost of (10) over (9) ([1]; equivalent phosphoramidates of d4T, McGuigan et al, AVCC, 1998) [fold] | EC50 [2] [µM] | EC50 [3] [µM] | EC50 [4] [µM] | times more potent than (7), prostate cancer cell line PC-3 ([2]; ratio versus methyl ester (7)) [fold] | fold more active than (7), breast cancer ([3]; ratio versus methyl ester (7)) [fold] | times more potent than (7), colon cancer cell line HT115 ([4]; ratio of 50% growth inhibition concentrations versus methyl ester (7)) [fold]
COC(=O)C(C)NP(=O)(OCC1C=CC(n2cc(C)c(=O)[nH]c2=O)O1)Oc1ccccc1 (stereo not shown) [(9)] | 0.075 |  |  |  |  |  |  | 
Cc1cn(C2C=CC(COP(=O)(NC(C)C(=O)OCc3ccccc3)Oc3ccccc3)O2)c(=O)[nH]c1=O (stereo not shown) [(10)] |  | ~4 |  |  |  |  |  | 
COC(=O)C(C)(C)NP(=O)(OCC1C=CC(n2cc(C)c(=O)[nH]c2=O)O1)Oc1ccccc1 (stereo not shown) [(12)] | 0.29 |  |  |  |  |  |  | 
COC(=O)C(C)NP(=O)(OCC1C=CC(n2cc(C)c(=O)[nH]c2=O)O1)Oc1ccc(C(F)(F)F)cc1 (stereo not shown) [(13)] | 0.01 |  |  |  |  |  |  | 
O=C(OCc1ccccc1)C1(NP(=O)(OC[C@H]2O[C@@H](n3cc(/C=C/Br)c(=O)[nH]c3=O)CC2O)Oc2ccc([N+](=O)[O-])cc2)CCCC1 (stereo partly drawn) [Example 21, (E)-5-(2-Bromovinyl)-2′-deoxyuridine-5′-[para-nitrophenyl-(benzoxy-α,α-cycloleucinyl)]-phosphate] |  |  | 2.2 | 8.4 | 17.2 |  |  | 
COC(=O)C1(NP(=O)(OC[C@H]2O[C@@H](n3cc(/C=C/Br)c(=O)[nH]c3=O)CC2O)Oc2ccc(F)cc2)CCCC1 (stereo partly drawn) [Example 22, (E)-5-(2-Bromovinyl)-2′-deoxyuridine-5′-[para-fluorophenyl-(methoxy-α,α-cycloleucinyl)]-phosphate] |  |  | 51 | 57 | 59.7 |  |  | 
CCOC(=O)C1(NP(=O)(OC[C@H]2O[C@@H](n3cc(/C=C/Br)c(=O)[nH]c3=O)CC2O)Oc2ccc(F)cc2)CCCC1 (stereo partly drawn) [Example 23, (E)-5-(2-Bromovinyl)-2′-deoxyuridine-5′-[para-fluorophenyl-(ethoxy-α,α-cycloleucinyl)]-phosphate] |  |  | 2.7 | 9.9 | 18.1 |  |  | 
O=C(OCc1ccccc1)C1(NP(=O)(OC[C@H]2O[C@@H](n3cc(/C=C/Br)c(=O)[nH]c3=O)CC2O)Oc2ccc(F)cc2)CCCC1 (stereo partly drawn) [Example 24, (E)-5-(2-Bromovinyl)-2′-deoxyuridine-5′-[para-fluorophenyl-(benzoxy-α,α-cycloleucinyl)]-phosphate] |  |  | 3.7 | 9.4 | 17 |  |  | 
COC(=O)C(C)(C)NP(=O)(OC[C@H]1O[C@@H](n2cc(/C=C/Br)c(=O)[nH]c2=O)CC1O)Oc1ccccc1 (stereo partly drawn) [Example 26, (E)-5-(2-bromovinyl)2′-deoxyuridine-5′-[phenyl-(methoxy-α,α-dimethylglycinyl)]-phosphate] |  |  | 1.5 | 41.1 | 77.9 |  |  | 
CCOC(=O)C(C)(C)NP(=O)(OC[C@H]1O[C@@H](n2cc(/C=C/Br)c(=O)[nH]c2=O)CC1O)Oc1ccccc1 (stereo partly drawn) [Example 27, (E)-5-(2-bromovinyl)-2′-deoxyuridine-5′-[phenyl-(ethoxy-α,α-dimethylglycinyl)]-phosphate] |  |  | 76.1 | 218 | 39.7 |  |  | 
CCOC(=O)C1(NP(=O)(OC[C@H]2O[C@@H](n3cc(/C=C/Br)c(=O)[nH]c3=O)CC2O)Oc2ccc(C(F)(F)F)cc2)CCCC1 (stereo partly drawn) [Example 29, (E)-5-(2-Bromovinyl)-2′-deoxyuridine-5′-[para-trifluorophenyl-(ethoxy-α,α-cycloleucinyl)]-phosphate] |  |  | 4.3 | 45.6 | 15.1 |  |  | 
COC(=O)C1(NP(=O)(OC[C@H]2O[C@@H](n3cc(/C=C/Br)c(=O)[nH]c3=O)CC2O)Oc2ccc(Cl)cc2)CCCC1 (stereo partly drawn) [Example 32, (E)-5-(2-Bromovinyl)-2′-deoxyuridine-5′-[para-chlorophenyl-(methoxy-α,α-cycloleucinyl)]-phosphate] |  |  | 52.2 | 2.6 | 99.3 |  |  | 
CCOC(=O)C1(NP(=O)(OC[C@H]2O[C@@H](n3cc(/C=C/Br)c(=O)[nH]c3=O)CC2O)Oc2ccc(Cl)cc2)CCCC1 (stereo partly drawn) [Example 33, (E)-5-(2-Bromovinyl)-2′-deoxyuridine-5′-[para-chlorophenyl-(ethoxy-α,α-cycloleucinyl)]-phosphate] |  |  | 83.2 | 12 | 97.9 |  |  | 
O=C(OCc1ccccc1)C1(NP(=O)(OC[C@H]2O[C@@H](n3cc(/C=C/Br)c(=O)[nH]c3=O)CC2O)Oc2ccc(Cl)cc2)CCCC1 (stereo partly drawn) [Example 34, (E)-5-(2-Bromovinyl)-2′-deoxyuridine-5′-[para-chlorophenyl-(benzoxy-α,α-cycloleucinyl)]-phosphate] |  |  | 6.3 | 3.9 | 8.9 |  |  | 
COC(=O)[C@H](CC(C)C)NP(=O)(OC[C@H]1O[C@@H](n2cc(/C=C/Br)c(=O)[nH]c2=O)CC1O)Oc1ccccc1 (stereo partly drawn) [Example 35, (E)-5-(2-Bromovinyl)-2′-deoxyuridine-5′-[phenyl-(methoxy-L-leucinyl)]-phosphate] |  |  | 75.7 | 18.5 | 7.7 |  |  | 
CC(C)C[C@H](NP(=O)(OC[C@H]1O[C@@H](n2cc(/C=C/Br)c(=O)[nH]c2=O)CC1O)Oc1ccccc1)C(=O)OCc1ccccc1 (stereo partly drawn) [Example 37, (E)-5-(2-Bromovinyl)-2′-deoxyuridine-5′-[phenyl-(benzoxy-L-leucinyl)]-phosphate] |  |  | 7.16 | 2.8 | 7 |  |  | 
CC(C)C[C@H](NP(=O)(OC[C@H]1O[C@@H](n2cc(/C=C/Br)c(=O)[nH]c2=O)CC1O)Oc1ccc([N+](=O)[O-])cc1)C(=O)OCc1ccccc1 (stereo partly drawn) [Example 38, (E)-5-(2-Bromovinyl)-2′-deoxyuridine-5′-(para-nitrophenyl-(benzoxy-L-leucinyl)]-phosphate] |  |  | 7.2 | 6.3 | 10.7 |  |  | 
CC(C)C[C@H](NP(=O)(OC[C@H]1O[C@@H](n2cc(/C=C/Br)c(=O)[nH]c2=O)CC1O)Oc1ccc(Cl)cc1)C(=O)OCc1ccccc1 (stereo partly drawn) [Example 39, (E)-5-(2-Bromovinyl)-2′-deoxyuridine-5′-[para-chlorophenyl-(benzoxy-L-leucinyl)]-phosphate] |  |  | 193 | 4.3 | 288 |  |  | 
C[C@H](NP(=O)(OC[C@H]1O[C@@H](n2ccc(N)nc2=O)C(F)(F)C1O)Oc1ccc(Cl)cc1)C(=O)OCc1ccccc1 (stereo partly drawn) [Example 40, Gemcitabine-[para-chlorophenyl-(benzoxy-L-alaninyl)]-phosphate] |  |  | 15.4 | 9.2 | 16.1 |  |  | 
CC(C)(NP(=O)(OC[C@H]1O[C@@H](n2ccc(N)nc2=O)C(F)(F)C1O)Oc1ccc(Cl)cc1)C(=O)OCc1ccccc1 (stereo partly drawn) [Example 41, Gemcitabine-[para-chlorophenyl-(benzoxy-α,α-dimethylglycinyl)]-phosphate] |  |  | 68.8 | 3.1 | 317 |  |  | 
COC(=O)C(C)(C)NP(=O)(OC[C@H]1O[C@@H](n2cc(/C=C/Br)c(=O)[nH]c2=O)CC1O)Oc1ccc(Cl)cc1 (stereo partly drawn) [Example 42, (E)-5-(2-bromovinyl)-2′-deoxyuridine-5′-[4-chlorophenyl-(methoxy-α,α-dimethylglycinyl)]-phosphate] |  |  | 442 | 8.7 | 183 |  |  | 
CCOC(=O)C(C)(C)NP(=O)(OC[C@H]1O[C@@H](n2cc(/C=C/Br)c(=O)[nH]c2=O)CC1O)Oc1ccc(Cl)cc1 (stereo partly drawn) [Example 43, (E)-5-(2-bromovinyl)-2′-deoxyuridine-5′-[4-chlorophenyl-(ethoxy-α,α-dimethylglycinyl)]-phosphate] |  |  | 1.15 | 5.9 | 174 |  |  | 
CC(C)(NP(=O)(OC[C@H]1O[C@@H](n2cc(/C=C/Br)c(=O)[nH]c2=O)CC1O)Oc1ccc(Cl)cc1)C(=O)OCc1ccccc1 (stereo partly drawn) [Example 44, (E)-5-(2-bromovinyl)-2′-deoxyuridine-5′-[4-chlorophenyl-(benzoxy-α,α-dimethylglycinyl)]-phosphate] |  |  | 9.12 | 2.3 | 4.5 |  |  | 
COC(=O)C(C)(C)NP(=O)(OC[C@H]1O[C@@H](n2cc(/C=C/Br)c(=O)[nH]c2=O)CC1O)Oc1ccc([N+](=O)[O-])cc1 (stereo partly drawn) [Example 45, (E)-5-(2-bromovinyl)-2′-deoxyuridine-5′-[4-nitrophenyl-(methoxy-α,α-dimethylglycinyl)]-phosphate] |  |  | 223 | 9.4 | 24.7 |  |  | 
CCOC(=O)C(C)(C)NP(=O)(OC[C@H]1O[C@@H](n2cc(/C=C/Br)c(=O)[nH]c2=O)CC1O)Oc1ccc([N+](=O)[O-])cc1 (stereo partly drawn) [Example 46, (E)-5-(2-bromovinyl)-2′-deoxyuridine-5′-[4-nitrophenyl-(ethoxy-α,α-dimethylglycinyl)]-phosphate] |  |  | 82.4 | 2 | 224 |  |  | 
CC(C)(NP(=O)(OC[C@H]1O[C@@H](n2cc(/C=C/Br)c(=O)[nH]c2=O)CC1O)Oc1ccc([N+](=O)[O-])cc1)C(=O)OCc1ccccc1 (stereo partly drawn) [Example 47, (E)-5-(2-bromovinyl)-2′-deoxyuridine-5′-[4-nitrophenyl-(benzoxy-α,α-dimethylglycinyl)]-phosphate] |  |  | 27.2 | 4.5 | 16.7 |  |  | 
CC(C)(NP(=O)(OCC1OC(n2cc(/C=C/Br)c(=O)[nH]c2=O)CC1O)Oc1ccc(C(F)(F)F)cc1)C(=O)OCc1ccccc1 (stereo not drawn) [Example 48, (E)-5-(2-bromovinyl)-2′-deoxyuridine-5′-[para-(trifluoromethyl)phenyl-(benzoxy-α,α-dimethylglycinyl)]-phosphate] |  |  | 0.61 | 1.3 | 7 | 254 | 60 | 35
